pIC50: −log10 of the molar value.
Target: T1, human CTPS1 (Homo sapiens, UniProt P17812)
T1 construct: FLAG (with GG linker); His8 (with GG linker); purchased Proteros biostructures GmbH
T1 sequence (P17812 1-591): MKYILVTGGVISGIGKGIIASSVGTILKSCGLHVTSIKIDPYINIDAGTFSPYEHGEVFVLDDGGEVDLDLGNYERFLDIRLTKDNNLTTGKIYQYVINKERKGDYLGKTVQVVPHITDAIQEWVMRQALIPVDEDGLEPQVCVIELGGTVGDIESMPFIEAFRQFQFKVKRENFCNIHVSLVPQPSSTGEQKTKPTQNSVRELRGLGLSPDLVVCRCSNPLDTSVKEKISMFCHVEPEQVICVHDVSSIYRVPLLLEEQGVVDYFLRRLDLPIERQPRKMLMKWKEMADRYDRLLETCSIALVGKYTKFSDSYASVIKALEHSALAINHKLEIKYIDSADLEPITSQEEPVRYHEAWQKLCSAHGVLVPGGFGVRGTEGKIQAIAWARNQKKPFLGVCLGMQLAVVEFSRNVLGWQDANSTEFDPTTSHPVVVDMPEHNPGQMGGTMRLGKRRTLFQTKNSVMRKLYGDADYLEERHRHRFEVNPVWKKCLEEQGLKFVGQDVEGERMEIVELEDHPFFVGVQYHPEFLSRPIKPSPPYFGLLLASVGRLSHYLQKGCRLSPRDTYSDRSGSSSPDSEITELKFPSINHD
Test: Human CTPS1 enzyme inhibition, ADP-Glo Max assay
Type: biochemical
Details: ADP-Glo Max assay; Table 10; read-out: Human CTPS1 Enzyme Inhibition, IC50 grouped by potency range (CTPS1)
Summary of the method: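 Read-out is ADP-Glo Max luminescence: residual ATP depleted (60 min), then produced ADP converted back to ATP for luciferase detection (60 min). Beforehand, protein and compound were mixed for 10 min at 25 °C in Tris buffer pH 8.0 with MgCl2, Tween-20 and 2 mM L-cysteine. Results expressed as percentage inhibition per concentration.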

SMILES | pIC50
CCOc1cncc(-c2ccc(NC(=O)C(C)(C)c3csc(NS(=O)(=O)C(C)C)n3)cc2)n1 [T298, N-(4-(6-ethoxypyrazin-2-yl)phenyl)-2-methyl-2-(2-((1-methylethyl)sulfonamido)thiazol-4-yl)propanamide] | > 7.00
CC(C)(C(=O)Nc1ccc(-c2cccnc2)cc1)c1csc(NS(=O)(=O)C2(C)CC2)n1 [T299, 2-methyl-2-(2-((1-methylcyclopropane)-1-sulfonamido)thiazol-4-yl)-N-(4-(pyridin-3-yl)phenyl)propanamide] | 6.00 to 7.00
CC(C)(C(=O)Nc1ccc(-c2cncc(Cl)c2)cc1)c1csc(NS(=O)(=O)C2(C)CC2)n1 [T300, N-(4-(5-chloropyridin-3-yl)phenyl)-2-methyl-2-(2-((1-methylcyclopropane)-1-sulfonamido)thiazol-4-yl)propanamide] | 6.00 to 7.00
CCOc1cncc(-c2ccc(NC(=O)C(C)(C)c3csc(NS(=O)(=O)C4(C)CC4)n3)cc2)n1 [T301, N-(4-(6-ethoxypyrazin-2-yl)phenyl)-2-methyl-2-(2-((1-methylcyclopropane)-1-sulfonamido)thiazol-4-yl)propanamide] | > 7.00
CC(C)(C(=O)Nc1ccc(-c2cncc(C(F)(F)F)n2)cc1)c1csc(NS(=O)(=O)C2(C)CC2)n1 [T302, 2-methyl-2-(2-((1-methylcyclopropane)-1-sulfonamido)thiazol-4-yl)-N-(4-(6-(trifluoromethyl)pyrazin-2-yl)phenyl)propanamide] | 6.00 to 7.00
CC(C)(C(=O)Nc1ccc(-c2cccnc2)cc1)c1csc(NS(=O)(=O)C(C)(C)C)n1 [T303, 2-(2-((1,1-dimethylethyl)sulfonamido)thiazol-4-yl)-2-methyl-N-(4-(pyridin-3-yl)phenyl)propanamide] | 5.00 to 6.00
CCOc1cncc(-c2ccc(NC(=O)C(C)(C)c3csc(NS(=O)(=O)C(C)(C)C)n3)cc2)n1 [T304, 2-(2-((1,1-dimethylethyl)sulfonamido)thiazol-4-yl)-N-(4-(6-ethoxypyrazin-2-yl)phenyl)-2-methylpropanamide] | 6.00 to 7.00
CC(C)(C(=O)Nc1ccc(-c2cncc(C(F)(F)F)n2)cc1)c1csc(NS(=O)(=O)C(C)(C)C)n1 [T305, 2-(2-((1,1-dimethylethyl)sulfonamido)thiazol-4-yl)-2-methyl-N-(4-(6-(trifluoromethyl)pyrazin-2-yl)phenyl)propanamide] | 6.00 to 7.00
CC(C)(C(=O)Nc1ccc(-c2cccnc2)cc1)c1csc(NS(=O)(=O)C2CCC2)n1 [T306, 2-(2-(cyclobutanesulfonamido)thiazol-4-yl)-2-methyl-N-(4-(pyridin-3-yl)phenyl)propanamide] | 6.00 to 7.00
CCOc1cncc(-c2ccc(NC(=O)C(C)(C)c3csc(NS(=O)(=O)C4CCC4)n3)cc2)n1 [T307, 2-(2-(cyclobutanesulfonamido)thiazol-4-yl)-N-(4-(6-ethoxypyrazin-2-yl)phenyl)-2-methylpropanamide] | > 7.00
CC(C)(C(=O)Nc1ccc(-c2cncc(C(F)(F)F)n2)cc1)c1csc(NS(=O)(=O)C2CCC2)n1 [T308, 2-(2-(cyclobutanesulfonamido)thiazol-4-yl)-2-methyl-N-(4-(6-(trifluoromethyl)pyrazin-2-yl)phenyl)propanamide] | 6.00 to 7.00
CN(C(=O)C(C)(C)c1csc(NS(=O)(=O)C2CC2)n1)c1ccc(-c2cncc(C#N)c2)cc1 [T309, N-(4-(5-cyanopyridin-3-yl)phenyl)-2-(2-(cyclopropanesulfonamido)thiazol-4-yl)-N,2-dimethylpropanamide] | 5.00 to 6.00
CN(C(=O)C(C)(C)c1csc(NS(=O)(=O)C2CC2)n1)c1ccc(-c2cncc(C(F)(F)F)n2)cc1 [T310, 2-(2-(cyclopropanesulfonamido)thiazol-4-yl)-N,2-dimethyl-N-(4-(6-(trifluoromethyl)pyrazin-2-yl)phenyl)propanamide] | 5.00 to 6.00
CC(C)CS(=O)(=O)Nc1nc(C(C)(C)C(=O)Nc2ccc(-c3cccnc3)cc2)cs1 [T311, 2-methyl-2-(2-((2-methylpropyl)sulfonamido)thiazol-4-yl)-N-(4-(pyridin-3-yl)phenyl)propanamide] | 5.00 to 6.00
CCOc1cncc(-c2ccc(NC(=O)C(C)(C)c3csc(NS(=O)(=O)CC(C)C)n3)cc2)n1 [T312, N-(4-(6-ethoxypyrazin-2-yl)phenyl)-2-methyl-2-(2-((2-methylpropyl)sulfonamido)thiazol-4-yl)propanamide] | 6.00 to 7.00
CC(C)CS(=O)(=O)Nc1nc(C(C)(C)C(=O)Nc2ccc(-c3cncc(C(F)(F)F)n3)cc2)cs1 [T313, 2-methyl-2-(2-((2-methylpropyl)sulfonamido)thiazol-4-yl)-N-(4-(6-(trifluoromethyl)pyrazin-2-yl)phenyl)propanamide] | 6.00 to 7.00
CN(C(=O)C(C)(C)c1csc(NS(=O)(=O)C2CC2)n1)c1ccc(-c2cncc(Cl)c2)cc1 [T318, N-(4-(5-chloropyridin-3-yl)phenyl)-2-(2-(cyclopropanesulfonamido)thiazol-4-yl)-N,2-dimethylpropanamide] | 5.00 to 6.00
Cc1sc(NS(=O)(=O)C2CC2)nc1C(C)(C)C(=O)Nc1ccc(-c2cccnc2)cc1 [T319, 2-(2-(cyclopropanesulfonamido)-5-methylthiazol-4-yl)-2-methyl-N-(4-(pyridin-3-yl)phenyl)propanamide] | 5.00 to 6.00
Cc1cc(-c2cncc(C#N)c2)cc(C)c1NC(=O)C(C)(C)c1csc(NS(=O)(=O)C2CC2)n1 [T320, N-(4-(5-cyanopyridin-3-yl)-2,6-dimethylphenyl)-2-(2-(cyclopropanesulfonamido)thiazol-4-yl)-2-methylpropanamide] | 6.00 to 7.00
Cc1cc(-c2cncc(Cl)c2)cc(C)c1NC(=O)C(C)(C)c1csc(NS(=O)(=O)C2CC2)n1 [T321, N-(4-(5-chloropyridin-3-yl)-2,6-dimethylphenyl)-2-(2-(cyclopropanesulfonamido)thiazol-4-yl)-2-methylpropanamide] | > 7.00
Cc1cc(NC(=O)C(C)(C)c2csc(NS(=O)(=O)C3CC3)n2)ccc1-c1cncc(C#N)c1 [T322, N-(4-(5-cyanopyridin-3-yl)-3-methylphenyl)-2-(2-(cyclopropanesulfonamido)thiazol-4-yl)-2-methylpropanamide] | 6.00 to 7.00
CCOc1cncc(-c2ccc(NC(=O)C(N)c3csc(NS(=O)(=O)C4CC4)n3)cc2)n1 (stereo not shown) [T325, 2-Amino-2-(2-(cyclopropanesulfonamido)thiazol-4-yl)-N-(4-(6-ethoxypyrazin-2-yl)phenyl)acetamide] | > 7.00
CC(C)(C(=O)Nc1ccc(-c2cncc(Cl)c2)c(C(F)(F)F)c1)c1csc(NS(=O)(=O)C2CC2)n1 [T370, N-(4-(5-chloropyridin-3-yl)-3-(trifluoromethyl)phenyl)-2-(2-(cyclopropanesulfonamido)thiazol-4-yl)-2-methylpropanamide] | 5.00 to 6.00
CCOc1cncc(-c2ccc(NC(=O)C(F)(F)c3csc(NS(=O)(=O)C4CC4)n3)nc2)n1 [T422, 2-(2-(cyclopropanesulfonamido)thiazol-4-yl)-N-(5-(6-ethoxypyrazin-2-yl)pyridin-2-yl)-2,2-difluoroacetamide] | 6.00 to 7.00
CCOc1cncc(-c2ccc(NC(=O)Cc3csc(NS(=O)(=O)C4CC4)n3)c(F)c2)n1 [T423, 2-(2-(cyclopropanesulfonamido)thiazol-4-yl)-N-(4-(6-ethoxypyrazin-2-yl)-2-fluorophenyl)acetamide] | > 7.00

Source: patent US20230086703A1, “N-(4-(5-chloropyridin-3-yl)phenyl)-2-(2-(cyclopropanesulfonamido)pyrimidin-4-yl) butanamide derivatives and related compounds as human CTPS1 inhibitors for the treatment of proliferative diseases” (Step Pharma S.A.S., priority 2019, published 2023)
